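Assay format: 96-well plates, 48-hour exposure. TGI: concentration producing complete growth inhibition.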
Legend:
Test in all cases: NCI tumour cell line growth inhibition, 48 h
MALME-3M melanoma = system: MALME-3M melanoma
ACHN renal = system: ACHN renal
SF-295 CNS = system: SF-295 CNS
OVCAR-4 ovarian = system: OVCAR-4 ovarian
HS 578T breast = system: HS 578T breast
SK-MEL-2 melanoma = system: SK-MEL-2 melanoma
SNB-19 CNS = system: SNB-19 CNS
MDA-N = system: MDA-N
MCF7 breast = system: MCF7 breast
NCI-H460 lung = system: NCI-H460 lung
NCI-H23 lung = system: NCI-H23 lung
PC-3 prostate = system: PC-3 prostate
MOLT-4 leukemia = system: MOLT-4 leukemia
UACC-62 melanoma = system: UACC-62 melanoma
M14 melanoma = system: M14 melanoma
HOP-62 NSCLC = system: HOP-62 NSCLC
TK-10 renal = system: TK-10 renal

O=C(CN(c1ccc(S(=O)(=O)O)cc1)c1ccc(S(=O)(=O)O)cc1)Nn1cnc2ccc(S(=O)(=O)N(c3ccc(S(=O)(=O)O)cc3)c3ccc(S(=O)(=O)O)cc3)cc2c1=O
TGI (MALME-3M melanoma): > 100 µM
TGI (ACHN renal): > 100 µM
TGI (SF-295 CNS): > 100 µM
TGI (OVCAR-4 ovarian): > 100 µM
TGI (HS 578T breast): > 100 µM
TGI (SK-MEL-2 melanoma): > 100 µM
TGI (SNB-19 CNS): > 100 µM
TGI (MDA-N): > 100 µM
TGI (MCF7 breast): > 100 µM
TGI (NCI-H460 lung): > 100 µM
TGI (NCI-H23 lung): > 100 µM
TGI (PC-3 prostate): > 100 µM
TGI (MOLT-4 leukemia): > 100 µM
TGI (UACC-62 melanoma): > 100 µM
TGI (M14 melanoma): > 100 µM
TGI (HOP-62 NSCLC): > 100 µM
TGI (TK-10 renal): > 100 µM

COc1ncnc2c1cnn2Cc1cn(CCCCO)nn1
TGI (MALME-3M melanoma): > 100 µM
TGI (ACHN renal): > 100 µM
TGI (SF-295 CNS): > 100 µM
TGI (OVCAR-4 ovarian): > 100 µM
TGI (HS 578T breast): > 100 µM
TGI (SK-MEL-2 melanoma): > 100 µM
TGI (SNB-19 CNS): > 100 µM
TGI (MDA-N): > 100 µM
TGI (MCF7 breast): > 100 µM
TGI (NCI-H460 lung): > 100 µM
TGI (NCI-H23 lung): > 100 µM
TGI (PC-3 prostate): > 100 µM
TGI (MOLT-4 leukemia): > 100 µM
TGI (UACC-62 melanoma): > 100 µM
TGI (M14 melanoma): > 100 µM
TGI (HOP-62 NSCLC): > 100 µM
TGI (TK-10 renal): > 100 µM

c1ccc(C2=Nc3cccc4cccc(c34)N2)cc1
TGI (MALME-3M melanoma): > 77.6 µM
TGI (ACHN renal): 62.5 µM
TGI (SF-295 CNS): > 100 µM
TGI (OVCAR-4 ovarian): 42.6 µM
TGI (HS 578T breast): > 100 µM
TGI (SK-MEL-2 melanoma): > 93.1 µM
TGI (SNB-19 CNS): > 100 µM
TGI (MDA-N): > 100 µM
TGI (MCF7 breast): > 69.4 µM
TGI (NCI-H460 lung): > 100 µM
TGI (NCI-H23 lung): > 100 µM
TGI (PC-3 prostate): 68 µM
TGI (MOLT-4 leukemia): > 54.8 µM
TGI (UACC-62 melanoma): > 100 µM
TGI (M14 melanoma): > 100 µM
TGI (HOP-62 NSCLC): > 100 µM
TGI (TK-10 renal): > 72 µM

COc1cccc2cc(C(=O)Nc3ccccn3)c(=N)oc12
TGI (MALME-3M melanoma): > 100 µM
TGI (ACHN renal): > 100 µM
TGI (SF-295 CNS): > 100 µM
TGI (OVCAR-4 ovarian): > 100 µM
TGI (HS 578T breast): > 100 µM
TGI (SK-MEL-2 melanoma): > 100 µM
TGI (SNB-19 CNS): > 100 µM
TGI (MDA-N): > 100 µM
TGI (MCF7 breast): > 100 µM
TGI (NCI-H460 lung): > 100 µM
TGI (NCI-H23 lung): > 100 µM
TGI (PC-3 prostate): > 100 µM
TGI (MOLT-4 leukemia): 10.6 µM
TGI (UACC-62 melanoma): > 100 µM
TGI (M14 melanoma): > 100 µM
TGI (HOP-62 NSCLC): > 100 µM
TGI (TK-10 renal): > 100 µM

CN(O)C(=S)c1ccccc1
TGI (MALME-3M melanoma): > 100 µM
TGI (ACHN renal): 37.7 µM
TGI (SF-295 CNS): 35.9 µM
TGI (OVCAR-4 ovarian): 19.6 µM
TGI (HS 578T breast): > 100 µM
TGI (SK-MEL-2 melanoma): > 33.1 µM
TGI (SNB-19 CNS): > 100 µM
TGI (MDA-N): > 20.5 µM
TGI (MCF7 breast): > 100 µM
TGI (NCI-H460 lung): 18.3 µM
TGI (NCI-H23 lung): 19.8 µM
TGI (PC-3 prostate): > 59.1 µM
TGI (MOLT-4 leukemia): 5.11 µM
TGI (UACC-62 melanoma): 6.21 µM
TGI (M14 melanoma): > 38.7 µM
TGI (HOP-62 NSCLC): > 90.8 µM
TGI (TK-10 renal): > 100 µM

COc1ccc2c(CCNS(=O)(=O)c3ccccc3)c(C(C)=O)[nH]c2c1
TGI (MALME-3M melanoma): > 100 µM
TGI (ACHN renal): > 100 µM
TGI (SF-295 CNS): > 100 µM
TGI (OVCAR-4 ovarian): > 100 µM
TGI (HS 578T breast): > 100 µM
TGI (SK-MEL-2 melanoma): > 100 µM
TGI (SNB-19 CNS): > 100 µM
TGI (MDA-N): > 100 µM
TGI (MCF7 breast): > 100 µM
TGI (NCI-H460 lung): > 100 µM
TGI (NCI-H23 lung): > 100 µM
TGI (PC-3 prostate): > 100 µM
TGI (MOLT-4 leukemia): > 100 µM
TGI (UACC-62 melanoma): > 100 µM
TGI (M14 melanoma): > 100 µM
TGI (HOP-62 NSCLC): > 100 µM
TGI (TK-10 renal): > 100 µM

CC(=O)Oc1c(C)c2c(c3ccccc13)OC(C)(C)C2
TGI (MALME-3M melanoma): 30 µM
TGI (ACHN renal): 31 µM
TGI (SF-295 CNS): 30.9 µM
TGI (OVCAR-4 ovarian): 30 µM
TGI (HS 578T breast): 53.9 µM
TGI (SK-MEL-2 melanoma): 34 µM
TGI (SNB-19 CNS): 69.7 µM
TGI (MDA-N): 24.9 µM
TGI (MCF7 breast): 35.4 µM
TGI (NCI-H460 lung): 34.2 µM
TGI (NCI-H23 lung): 28 µM
TGI (PC-3 prostate): 47.2 µM
TGI (MOLT-4 leukemia): 37.1 µM
TGI (UACC-62 melanoma): 30.3 µM
TGI (M14 melanoma): 30.9 µM
TGI (HOP-62 NSCLC): 34.5 µM
TGI (TK-10 renal): 32.9 µM

O=[N+]([O-])c1cccc2nc3ccccc3c(NCCCN3CCCCC3)c12
TGI (MALME-3M melanoma): 0.038 µM
TGI (ACHN renal): 0.0472 µM
TGI (SF-295 CNS): 0.0605 µM
TGI (OVCAR-4 ovarian): 0.031 µM
TGI (HS 578T breast): 0.0966 µM
TGI (SK-MEL-2 melanoma): 0.0296 µM
TGI (SNB-19 CNS): 0.444 µM
TGI (MDA-N): 0.0217 µM
TGI (MCF7 breast): 0.11 µM
TGI (NCI-H460 lung): < 0.0134 µM
TGI (NCI-H23 lung): 0.0231 µM
TGI (PC-3 prostate): 0.0305 µM
TGI (MOLT-4 leukemia): 0.0681 µM
TGI (UACC-62 melanoma): 0.0298 µM
TGI (M14 melanoma): 0.0232 µM
TGI (HOP-62 NSCLC): 0.0433 µM
TGI (TK-10 renal): 0.0712 µM

COc1ccc2c(-c3ccc(O)cc3)c(Oc3ccc(Cl)cc3)c(=O)oc2c1
TGI (MALME-3M melanoma): 13.8 µM
TGI (ACHN renal): > 37.7 µM
TGI (SF-295 CNS): 23 µM
TGI (OVCAR-4 ovarian): 25.4 µM
TGI (HS 578T breast): 16.8 µM
TGI (SK-MEL-2 melanoma): 11.2 µM
TGI (SNB-19 CNS): 24.2 µM
TGI (MDA-N): 23.2 µM
TGI (MCF7 breast): > 23.1 µM
TGI (NCI-H460 lung): 19.8 µM
TGI (NCI-H23 lung): 8.32 µM
TGI (PC-3 prostate): 24.4 µM
TGI (MOLT-4 leukemia): > 29.9 µM
TGI (UACC-62 melanoma): 18.6 µM
TGI (M14 melanoma): 17.9 µM
TGI (HOP-62 NSCLC): 44.2 µM
TGI (TK-10 renal): > 22.7 µM

CC1OC(O[C@H]2CC[C@]3(C=O)[C@H]4CC[C@]5(C)[C@H](C6=CC(=O)OC6)CC[C@]5(O)[C@@H]4C=C[C@]3(O)C2)CC(O)C1O (some centres not stated)
TGI (MALME-3M melanoma): 0.361 µM
TGI (ACHN renal): 0.41 µM
TGI (SF-295 CNS): 0.489 µM
TGI (OVCAR-4 ovarian): 0.838 µM
TGI (HS 578T breast): 4.2 µM
TGI (SK-MEL-2 melanoma): 1.14 µM
TGI (SNB-19 CNS): 3.25 µM
TGI (MDA-N): 0.807 µM
TGI (MCF7 breast): 2.71 µM
TGI (NCI-H460 lung): 0.423 µM
TGI (NCI-H23 lung): 0.494 µM
TGI (PC-3 prostate): 0.657 µM
TGI (MOLT-4 leukemia): 0.3 µM
TGI (UACC-62 melanoma): 0.807 µM
TGI (M14 melanoma): 0.761 µM
TGI (HOP-62 NSCLC): 0.503 µM
TGI (TK-10 renal): 1.64 µM

COCCOCCOCCOc1ccc(C(C#N)N(CCc2ccccc2)C(=O)c2cc(C(=O)N(CCc3ccccc3)C(C#N)c3ccc(OCCOCCOCCOC)cc3)cc(C(=O)N(CCc3ccccc3)C(C#N)c3ccc(OCCOCCOCCOC)cc3)c2)cc1 (configuration not stated)
TGI (MALME-3M melanoma): > 100 µM
TGI (ACHN renal): > 100 µM
TGI (SF-295 CNS): > 100 µM
TGI (OVCAR-4 ovarian): > 100 µM
TGI (HS 578T breast): > 100 µM
TGI (SK-MEL-2 melanoma): > 100 µM
TGI (SNB-19 CNS): > 100 µM
TGI (MDA-N): > 100 µM
TGI (MCF7 breast): > 100 µM
TGI (NCI-H460 lung): > 100 µM
TGI (NCI-H23 lung): > 100 µM
TGI (PC-3 prostate): > 100 µM
TGI (MOLT-4 leukemia): > 100 µM
TGI (UACC-62 melanoma): > 100 µM
TGI (M14 melanoma): > 100 µM
TGI (HOP-62 NSCLC): > 100 µM
TGI (TK-10 renal): > 100 µM

From PubChem BioAssay (NCI)
